Data taken from US4745124A, “Orally effective anti-hypertensive agents” (priority 1983, dated 1988).

Experiments:
[1] = test system: pressor effects of angiotensin I; assay: oral effectiveness: blood pressure response to angiotensin I in anesthetized rats; assay type: in vivo, rat; details: oral 17 μmol/kg, Ex. 228
Procedure, shortened: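 Fasted rats under pentobarbital anesthesia (50-60 mg/kg i.p.), ventilated, with carotid arterial pressure recorded; i.v. angiotensin I (80 ng, 160 ng or 400 ng/kg) or angiotensin II (80 ng) challenges repeated at timed intervals after oral gavage of compound (2-20 mg/kg, 10 mg, 17 or 23 μmol/kg) in aqueous NaHCO3.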

[2] = test system: pressor effects of angiotensin I; assay: intravenous effectiveness: blood pressure response to angiotensin I in anesthetized rats; assay type: in vivo, rat; details: i.v. 2 μmol/kg, Ex. 229
[3] = target: T1, angiotensin converting enzyme (human urinary ACE) (Homo sapiens, UniProt P12821); assay: ACE activity assay, I50 (Example 216A); assay type: biochemical; details: human urinary ACE; Benzoyl-GlyHisLeu 1×10^-4 M; Hepes pH 8.0; 37° C; in vitro; read-out: I50
T1 construct: ACE purified from human urine; from tissue; host or cells: human urine (ultrafiltration and Sephacryl S-200, first eluting peak; prepared as in Ryan et al., Tissue and Cell 10, 555 (1978))
T1 sequence (P12821 30-1232 limits assumed): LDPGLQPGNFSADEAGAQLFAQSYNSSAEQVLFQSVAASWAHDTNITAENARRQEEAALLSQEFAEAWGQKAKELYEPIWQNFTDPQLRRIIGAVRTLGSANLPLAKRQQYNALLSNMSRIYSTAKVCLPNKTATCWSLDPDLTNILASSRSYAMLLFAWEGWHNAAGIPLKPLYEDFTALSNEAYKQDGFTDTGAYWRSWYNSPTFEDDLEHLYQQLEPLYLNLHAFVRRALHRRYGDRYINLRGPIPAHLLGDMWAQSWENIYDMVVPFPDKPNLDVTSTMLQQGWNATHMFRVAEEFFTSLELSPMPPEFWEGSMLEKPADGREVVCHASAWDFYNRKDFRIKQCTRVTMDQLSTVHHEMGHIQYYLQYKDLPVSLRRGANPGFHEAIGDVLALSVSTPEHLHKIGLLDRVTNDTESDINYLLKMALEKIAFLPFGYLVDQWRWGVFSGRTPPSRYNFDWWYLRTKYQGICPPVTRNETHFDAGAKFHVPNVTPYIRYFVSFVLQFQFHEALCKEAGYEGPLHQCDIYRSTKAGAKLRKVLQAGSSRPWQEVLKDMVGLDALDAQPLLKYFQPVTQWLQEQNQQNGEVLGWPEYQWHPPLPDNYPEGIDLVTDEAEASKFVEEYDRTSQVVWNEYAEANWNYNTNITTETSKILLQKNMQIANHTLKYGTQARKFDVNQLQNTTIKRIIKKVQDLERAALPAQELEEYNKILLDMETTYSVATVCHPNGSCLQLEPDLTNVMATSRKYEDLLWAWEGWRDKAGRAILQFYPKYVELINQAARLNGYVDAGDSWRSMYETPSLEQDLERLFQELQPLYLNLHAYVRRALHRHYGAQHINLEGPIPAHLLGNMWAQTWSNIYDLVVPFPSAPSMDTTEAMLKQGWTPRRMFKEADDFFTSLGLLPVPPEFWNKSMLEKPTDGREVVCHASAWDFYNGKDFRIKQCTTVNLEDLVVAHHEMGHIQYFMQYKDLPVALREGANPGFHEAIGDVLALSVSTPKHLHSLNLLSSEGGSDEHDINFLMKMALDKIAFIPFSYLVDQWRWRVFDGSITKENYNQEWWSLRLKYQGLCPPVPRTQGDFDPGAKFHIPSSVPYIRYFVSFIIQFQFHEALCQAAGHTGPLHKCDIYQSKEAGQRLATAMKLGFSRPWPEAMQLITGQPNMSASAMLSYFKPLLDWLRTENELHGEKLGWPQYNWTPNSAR

SMILES: C[C@H](CSC(=O)[C@H](Cc1ccccc1)NC(=O)[C@H](CCCCN)NC(=O)C1CCCC1)C(=O)N1CCC[C@H]1C(=O)O [N-alpha-[3-(N-alpha-cyclopentylcarbonyl-L-lysyl-L-phenylalanylthio)-2-D-methylpropanoyl]-L-proline]
- Blood Pressure Response to 400 ng/kg of Angiotensin I ([1]; 5 min): 59 % of Control
- Blood Pressure Response to 400 ng/kg of Angiotensin I ([1]; 10 min): 44 % of Control
- Blood Pressure Response to 400 ng/kg of Angiotensin I ([1]; 15 min): 44 % of Control
- Blood Pressure Response to 400 ng/kg of Angiotensin I ([1]; 31 min): 44 % of Control
- Blood Pressure Response to 400 ng/kg of Angiotensin I ([1]; 37 min): 38 % of Control
- Blood Pressure Response to 400 ng/kg of Angiotensin I ([1]; 45 min): 44 % of Control
- Blood Pressure Response to 400 ng/kg of Angiotensin I ([1]; 55 min): 44 % of Control
- Blood Pressure Response to 400 ng/kg of Angiotensin I ([1]; 81 min): 36 % of Control
- Blood Pressure Response to 400 ng/kg of Angiotensin I ([1]; 93 min): 36 % of Control
- Blood Pressure Response to 400 ng/kg of Angiotensin I ([1]; 104 min): 38 % of Control
- Blood Pressure Response to 400 ng/kg of Angiotensin I ([2]; 3 min): 8 % of Control
- Blood Pressure Response to 400 ng/kg of Angiotensin I ([2]; 9 min): 15 % of Control
- Blood Pressure Response to 400 ng/kg of Angiotensin I ([2]; 14 min): 23 % of Control
- Blood Pressure Response to 400 ng/kg of Angiotensin I ([2]; 19 min): 23 % of Control
- Blood Pressure Response to 400 ng/kg of Angiotensin I ([2]; 24 min): 33 % of Control
- Blood Pressure Response to 400 ng/kg of Angiotensin I ([2]; 37 min): 41 % of Control
- Blood Pressure Response to 400 ng/kg of Angiotensin I ([2]; 45 min): 46 % of Control
- Blood Pressure Response to 400 ng/kg of Angiotensin I ([2]; 54 min): 46 % of Control
- Blood Pressure Response to 400 ng/kg of Angiotensin I ([2]; 77 min): 46 % of Control
- Blood Pressure Response to 400 ng/kg of Angiotensin I ([2]; 87 min): 51 % of Control
- IC50 [3]: 15 nM
